Assay results reported in patent publication US20210214303A1, “SCORPION VENOM BENZOQUINONE DERIVATIVES AND USES THEREOF” (priority 2018, published 2021).
Entries after “also recorded” stand apart in the source; their conditions may differ.

Tests used:
[1] = tested on: peripheral blood mononuclear cells (PBMCs); test: cytotoxicity assay, LDH release; type: cell-based, human; conditions: 25 μM, 12 hours
Procedure: FIG. 14B illustrates a cytotoxic effect of the 1,4 benzoquinones of the disclosure on peripheral blood mononuclear cells (PBMCs). PBMCs were incubated with the red and blue 1,4 benzoquinones at a concentration of 25 μM for 12 hours, and cell death was evaluated by the release of the stable cytosolic enzyme lactate dehydrogenase. […] Each result is reported as the mean±SD.
(§1) Cytotoxicity to PBMCs and to Neoplastic Cells: The cytotoxicity of the 1,4 benzoquinones of the disclosure was tested with peripheral blood mononuclear cells (PBMCs) and various human neoplastic cell lines: A549 (adenocarcinomic lung epithelial cells), Jurkat (T cell leukemia), TE 671 (rhabdomyosarcoma cells) and SH-SY5Y (bone marrow neuroblastoma cells).
(§2) PBMCs were obtained from healthy blood donors and isolated by Ficoll-Paque PLUS density gradient centrifugation and resuspended in RPMI-1640 medium supplemented with 10% fetal calf serum. Cells were incubated at 37° C. in 5% CO2 overnight and non-adherent cells were recovered and used for subsequent experiments. The neoplastic cell lines were cultured according to the ATCC guidelines.
(§3) For cytotoxicity assays, cells were resuspended in DMEM without phenol red, supplemented with 2% heat-inactivated fetal calf serum. Cells were plated in 96-well polystyrene cell culture plates (2×10^4 to 2×10^5 cells/well depending on the cell type) and incubated at 37° C. in 5% CO2 for 8 hours to promote cell adhesion to the well's surface. The red and blue 1,4 benzoquinones were administered to achieve final concentrations of 1, 5, and 25 μM. Cells were then incubated at 37° C. in 5% CO2 for 12 hours. Following the incubation period, plates were centrifuged at 300×g for 10 minutes and supernatants were harvested to evaluate cell viability with the CytoTox 96@ Non-Radioactive Cytotoxicity Assay (Promega). This assay quantitatively measures lactate dehydrogenase (LDH), a stable cytosolic enzyme that is released upon cell lysis. The released LDH in the culture supernatants was measured with a colorimetric coupled enzymatic assay according to the manufacturer's instructions.

Jurkat (T cell leukemia) = test: cytotoxicity assay, LDH release; type: cell-based, human; conditions: 1, 5, and 25 μM, 12 hours
Procedure: as §1, §2, §3

[2] = tested on: A549 (adenocarcinomic lung epithelial cells); test: cytotoxicity assay, LDH release; type: cell-based, human; conditions: 1, 5, and 25 μM, 12 hours
Procedure: as §1, §2, §3

[3] = tested on: SH-SY5Y (bone marrow neuroblastoma cells); test: cytotoxicity assay, LDH release; type: cell-based, human; conditions: 1, 5, and 25 μM, 12 hours
Procedure: as §1, §2, §3

[4] = tested on: TE 671 (rhabdomyosarcoma cells); test: cytotoxicity assay, LDH release; type: cell-based, human; conditions: 1, 5, and 25 μM, 12 hours
Procedure: as §1, §2, §3

Jurkat cells = test: Annexin V / viability dye flow cytometry apoptosis assay; type: cell-based; conditions: 25 μM; 0, 4, 8 and 12 h
Procedure: In this assay, Jurkat cells were incubated with either the red or blue 1,4 benzoquinone at a concentration of 25 μM for 0, 4, 8 and 12 h. Cells were then stained with the Fixable Viability Dye eFluor 780 and FITC Annexin V and analyzed using flow cytometry. Positive staining with Annexin V is a marker of early apoptosis, and positive staining with both Annexin V and the viability dye is a marker of late apoptosis/necrosis. Double negatives are live cells. Cells were grouped into three categories (live, early apoptotic, and late apoptotic/necrotic). Data from three independent experiments are shown as mean±SEM (standard error of mean).

[5] = tested on: clinical isolates of methicillin-resistant S. aureus (MRSA); test: Minimum inhibitory concentration, Table 1, MRSA clinical isolates; type: cell-based, Staphylococcus aureus; as to sensitive/resistant (growth): key: S Sensitive (did not grow the crop); R resistant (bacterial growth)
Staphylococcus aureus = test: disk-diffusion assay; type: cell-based
Procedure: Ampicillin (5 μg) was used as a positive control.
This difference was confirmed using a broth microdilution assay (FIG. 3D). The minimum inhibitory concentration (MIC) for S. aureus growth was 4 μg/mL for the red 1,4 benzoquinone and 6 μg/mL for the blue 1,4 benzoquinone (FIG. 3D, Table 1). Ampicillin (MIC=0.5 μg/mL) was used as a positive control (ESCMID Eo (2003) Clin. Microbiol. Infect. 9: ix-xv; Pieterse et al., (2010) Brazil. J. Microbiol. 41: 133-145). These compounds were bactericidal at their MICs, killing 90% of S. aureus in 6 h and 99.9% in 24 h (Table 2).

E. coli = test: activity against gram negative E. coli; type: cell-based
Candida. albicans = test: activity against pathogenic fungus; type: cell-based
[6] = tested on: Mycobacterium tuberculosis H37Rv; test: microbe, parasite or virus in culture; type: cell-based; conditions: M. tuberculosis H37Rv, broth microdilution
fresh human erythrocytes = test: Hemolysis assay; type: cell-based; conditions: 2 hours, all concentrations tested (even higher than 100 μg/mL)
Procedure: FIG. 14A illustrates a cytotoxic activity assay of the red and blue 1,4 benzoquinones. Hemolysis was evaluated using fresh human erythrocytes. Lysis was evaluated by the absorbance of the supernatant at 415 nm after 2 hours of incubation with different concentrations of the 1,4 benzoquinones. Triton X-100 was used as positive control.
Hemolysis assay: The hemolytic activity was evaluated for both of the 1,4 benzoquinones using fresh human erythrocytes. Fresh human erythrocytes were washed four times with phosphate buffered saline (PBS) and incubated for 2 h at 37° C. with different concentration of the 1,4 benzoquinones. A gradient of Triton X-100 was used as positive control of hemolysis. After incubation, the erythrocytes suspension was centrifuged at 400×g for 10 min and supernatant was recovered. Hemolysis was determined by the absorbance of the supernatant at 415 nm.

SMILES: COC1=CC(=O)C(SC)=C(OC)C1=O [red 1,4 benzoquinone, 3,5-dimethoxy-2-(methylthio)cyclohexa-2,5-diene-1,4-dione]
- PBMCs killed [1]: 60%
- cytotoxic effect on PBMCs (LDH release) [1]: cytotoxic against PBMCs
- cytotoxic effect on Jurkat cells (LDH release) (Jurkat (T cell leukemia)): comparably potent in inducing death
- cytotoxic effect on A549 cells (LDH release) [2]: remained relatively unaffected
- cytotoxic effect on SH-SY5Y cells (LDH release) [3]: comparably potent in inducing death
- cytotoxic effect on TE 671 cells (LDH release) [4]: comparably potent in inducing death
- apoptosis (Annexin V staining, loss of cell membrane asymmetry) (Jurkat cells): triggers apoptosis
- MIC ([5]; Staphylococcus aureus, MRSA): > 64 µg/mL
- MIC ([5]; strain 01 2075): >64 µg/mL
- sensitive/resistant (growth) ([5]; strain 01 2075, 0.5 μg/ml): R
- sensitive/resistant (growth) ([5]; strain 01 2075, 1 μg/ml): R
- sensitive/resistant (growth) ([5]; strain 01 2075, 2 μg/ml): R
- sensitive/resistant (growth) ([5]; strain 01 2075, 4 μg/ml): R
- sensitive/resistant (growth) ([5]; strain 01 2075, 8 μg/ml): R
- sensitive/resistant (growth) ([5]; strain 01 2075, 16 μg/ml): R
- sensitive/resistant (growth) ([5]; strain 01 2075, 32 μg/ml): R
- sensitive/resistant (growth) ([5]; strain 01 2075, 64 μg/ml): R
- MIC ([5]; strain 01 2104): >64 µg/mL
- sensitive/resistant (growth) ([5]; strain 01 2104, 0.5 μg/ml): R
- sensitive/resistant (growth) ([5]; strain 01 2104, 1 μg/ml): R
- sensitive/resistant (growth) ([5]; strain 01 2104, 2 μg/ml): R
- sensitive/resistant (growth) ([5]; strain 01 2104, 4 μg/ml): R
- sensitive/resistant (growth) ([5]; strain 01 2104, 8 μg/ml): R
- sensitive/resistant (growth) ([5]; strain 01 2104, 16 μg/ml): R
- sensitive/resistant (growth) ([5]; strain 01 2104, 32 μg/ml): R
- sensitive/resistant (growth) ([5]; strain 01 2104, 64 μg/ml): R
- sensitive/resistant (growth) ([5]; strain 09 3001, 0.5 μg/ml): R
- sensitive/resistant (growth) ([5]; strain 09 3001, 1 μg/ml): R
- sensitive/resistant (growth) ([5]; strain 09 3001, 2 μg/ml): R
- sensitive/resistant (growth) ([5]; strain 09 3001, 4 μg/ml): R
- sensitive/resistant (growth) ([5]; strain 09 3001, 8 μg/ml): R
- sensitive/resistant (growth) ([5]; strain 09 3001, 16 μg/ml): R
- sensitive/resistant (growth) ([5]; strain 09 3001, 32 μg/ml): R
- sensitive/resistant (growth) ([5]; strain 09 3001, 64 μg/ml): R
- MIC ([5]; strain 21 2001): >64 µg/mL
- sensitive/resistant (growth) ([5]; strain 21 2001, 0.5 μg/ml): R
- sensitive/resistant (growth) ([5]; strain 21 2001, 1 μg/ml): R
- sensitive/resistant (growth) ([5]; strain 21 2001, 2 μg/ml): R
- sensitive/resistant (growth) ([5]; strain 21 2001, 4 μg/ml): R
- sensitive/resistant (growth) ([5]; strain 21 2001, 8 μg/ml): R
- sensitive/resistant (growth) ([5]; strain 21 2001, 16 μg/ml): R
- sensitive/resistant (growth) ([5]; strain 21 2001, 32 μg/ml): R
- sensitive/resistant (growth) ([5]; strain 21 2001, 64 μg/ml): R
- inhibition of S. aureus growth (Staphylococcus aureus): clear inhibition; also recorded: inhibitory activity
- activity against gram negative E. coli (E. coli): neither compound was found to have appreciable activity; also recorded: Neither 1,4 benzoquinone showed activity
- activity against the pathogenic fungus Candida. albicans (Candida. albicans): Neither 1,4 benzoquinone showed activity
- MIC [6]: > 160 µg/mL
- hemolytic activity (fresh human erythrocytes): no erythrocyte hemolysis was observed; also recorded: Neither 1,4 benzoquinone showed hemolytic activity
